Measured values from patent US9676771B2, “Compounds for inhibiting drug-resistant strains of HIV-1 integrase” (priority 2013, dated 2017).
Like-named read-outs stand apart in the source and are kept apart here.

Target: HIV-1 integrase (Human immunodeficiency virus type 1 group M subtype B, UniProt P12497)
Experiment: biochemical
Format: biochemical
Description: In Vitro Integrase Assay.
Integrase reactions were carried out by adding drugs or an equivalent volume of 100% dimethyl sulfoxide (DMSO; used as the drug solvent) to a mixture of 20 nM DNA and 400 nM integrase in 50 mM morpholinepropanesulfonic acid (pH 7.2), 7.5 mM MgCl2, and 14 mM 2-mercaptoethanol. Reactions were performed at 37° C. for 2 h and quenched by the addition of an equal volume of loading buffer (formamide containing 1% sodium dodecyl sulfate, 0.25% bromophenol blue, and xylene cyanol). […] Dried gels were visualized using a Typhoon 8600 (GE Healthcare, Piscataway, N.J.). Densitometric analyses were performed using ImageQuant 5.1 software from GE Healthcare.

[1] = Table 1, 3′-processing, read-out: IC50 Values 3′-Processing
[2] = Table 1, strand transfer, read-out: IC50 Values Strand transfer
[3] = Table 4, strand transfer, read-out: IC50 (Strand Transfer)
[4] = Table 4, 3′-processing, read-out: IC50 (3^+-Processing)

Q: With `O=C(NCc1ccc(F)c(F)c1)c1c(O)c2cccnc2[nH]c1=O` [XZ368, N-(3,4-difluorobenzyl)-4-hydroxy-2-oxo-1,2-dihydro-1,8-naphthyridine-3-carboxamide] as the molecule, how does the IC50 [1] read?
A: Its IC50 is 93 ± 8 µM.

Q: And the IC50 [2]?
A: The IC50 was 8.1 ± 1.8 µM.

Q: How did the IC50 [3] turn out when `COC(=O)CNc1c(C(=O)NCc2ccc(F)cc2F)c(=O)n(O)c2nc(N3CCOCC3)ccc12` [XZ414, methyl 2-((3-((2,4-difluorobenzyl)carbamoyl)-1-hydroxy-7-morpholino-2-oxo-1,2-dihydro-1,8-naphthyridin-4-yl)amino)acetate] was run?
A: The IC50 was 6.2 ± 0.8 µM.

Q: With `O=C(NCc1ccc(F)c(Cl)c1)c1cc2cccc(O)c2n(O)c1=O` [XZ374, N-(3-chloro-4-fluorobenzyl)-1,8-dihydroxy-2-oxo-1,2-dihydroquinoline-3-carboxamide] as the molecule, how does the IC50 [1] read?
A: The IC50 was 17 ± 1 µM.

Q: What about the IC50 [2] of the same molecule?
A: The IC50 was 0.53 ± 0.13 µM.

Q: How did the IC50 [1] turn out when `O=C(NCc1ccc(F)cc1F)c1cc2cccc(O)c2n(O)c1=O` [XZ369, N-(2,4-difluorobenzyl)-1,8-dihydroxy-2-oxo-1,2-dihydroquinoline-3-carboxamide] was run?
A: The IC50 was 43 ± 5 µM.

Q: And the IC50 [2]?
A: The IC50 was 18 ± 7 µM.

Q: Which IC50 [1] does the source give for `O=C(NCc1ccc(F)cc1F)c1c(O)c2cccnc2[nH]c1=O` [XZ352, N-(2,4-difluorobenzyl)-4-hydroxy-2-oxo-1,2-dihydro-1,8-naphthyridine-3-carboxamide] here?
A: The IC50 was > 333 µM.

Q: What about the IC50 [2] of the same molecule?
A: Its IC50 is 7.1 ± 1.8 µM.

Q: How did the IC50 [4] turn out when `O=C(NCc1ccc(F)cc1F)c1c(O)c2ccc(N3CCOCC3)nc2n(O)c1=O` [XZ412, N-(2,4-difluorobenzyl)-1,4-dihydroxy-7-morpholino-2-oxo-1,2-dihydro-1,8-naphthyridine-3-carboxamide] was run?
A: The IC50 was > 333 µM.

Q: What about the IC50 [3] of the same molecule?
A: Its IC50 is 1.9 ± 0.2 µM.

Q: What does the source list for `O=C(NCc1ccc(F)c(Cl)c1)c1c(O)c2cccnc2[nH]c1=O` [XZ366, N-(3-chloro-4-fluorobenzyl)-4-hydroxy-2-oxo-1,2-dihydro-1,8-naphthyridine-3-carboxamide]?
A: IC50 [1]: 125 ± 15 µM; IC50 [2]: 7.8 ± 1.1 µM

Q: For `COC(=O)CNc1c(C(=O)NCc2ccc(F)cc2F)c(=O)n(O)c2nc(N3CCCCC3)ccc12` [XZ411, methyl 2-((3-((2,4-difluorobenzyl)carbamoyl)-1-hydroxy-2-oxo-7-(piperidin-1-yl)-1,2-dihydro-1,8-naphthyridin-4-yl)amino)acetate], which IC50 [3] is on record?
A: Its IC50 is 96 ± 40 µM.

Q: With `Nc1c(C(=O)NCc2ccc(F)cc2F)c(=O)n(O)c2nc(N3CCOCC3)ccc12` [XZ413, 4-amino-N-(2,4-difluorobenzyl)-1-hydroxy-7-morpholino-2-oxo-1,2-dihydro-1,8-naphthyridine-3-carboxamide] as the molecule, how does the IC50 [4] read?
A: The IC50 was > 333 µM.

Q: And the IC50 [3]?
A: Its IC50 is 54 ± 10 µM.

Q: `O=C(NCc1ccc(F)c(F)c1)c1cc2cccc(O)c2n(O)c1=O` [XZ375, N-(3,4-difluorobenzyl)-1,8-dihydroxy-2-oxo-1,2-dihydroquinoline-3-carboxamide] was tested. Which IC50 [1] did it give?
A: Its IC50 is 24 ± 3 µM.

Q: What about the IC50 [2] of the same molecule?
A: Its IC50 is 0.78 ± 0.22 µM.

Q: Which IC50 [1] does the source give for `O=C(NCc1ccc(F)cc1F)c1cc2ccccc2n(O)c1=O` [XZ353, N-(2,4-difluorobenzyl)-1-hydroxy-2-oxo-1,2-dihydroquinoline-3-carboxamide] here?
A: Its IC50 is > 333 µM.

Q: What about the IC50 [2] of the same molecule?
A: Its IC50 is 19.7 ± 2.7 µM.

Q: With `COc1cccc2cc(C(=O)NCc3ccc(F)cc3F)c(=O)n(O)c12` [XZ370, N-(2,4-difluorobenzyl)-1-hydroxy-8-methoxy-2-oxo-1,2-dihydroquinoline-3-carboxamide] as the molecule, how does the IC50 [1] read?
A: The IC50 was > 333 µM.

Q: And the IC50 [2]?
A: The IC50 was > 333 µM.

Q: What does the source list for `O=C(NCc1ccc(F)cc1F)c1c(O)c2ccc(N3CCCCC3)nc2n(O)c1=O` [XZ409, N-(2,4-difluorobenzyl)-1,4-dihydroxy-2-oxo-7-(piperidin-1-yl)-1,2-dihydro-1,8-naphthyridine-3-carboxamide]?
A: IC50 [4]: > 333 µM; IC50 [3]: 70 ± 16 µM

Q: With `Nc1c(C(=O)NCc2ccc(F)cc2F)c(=O)n(O)c2nc(N3CCCCC3)ccc12` [XZ410, 4-amino-N-(2,4-difluorobenzyl)-1-hydroxy-2-oxo-7-(piperidin-1-yl)-1,2-dihydro-1,8-naphthyridine-3-carboxamide] as the molecule, how does the IC50 [4] read?
A: The IC50 was > 333 µM.

Q: What about the IC50 [3] of the same molecule?
A: The IC50 was 54 ± 18 µM.

Q: `O=C(NCc1ccc(F)cc1)c1c(O)c2cccnc2[nH]c1=O` [XZ364, N-(4-fluorobenzyl)-4-hydroxy-2-oxo-1,2-dihydro-1,8-naphthyridine-3-carboxamide] was tested. Which IC50 [1] did it give?
A: Its IC50 is 136 ± 16 µM.

Q: And the IC50 [2]?
A: The IC50 was 5.1 ± 1.5 µM.
